Structures are written as SMILES.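 Exposure lasted 48 hours, with cells grown in 96-well plates and compounds tested at five concentrations. GI50 = concentration required for 50% inhibition of growth.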 The source made the active and inactive calls. Cut-off read from the data, not from the text of the source: active = GI50 up to about 1.1 µM and inactive = higher.

Among the test systems are HCT-116; SF-295; SF-268; SK-MEL-2; OVCAR-8; OVCAR-4; BT-549; A549; SK-OV-3; NCI-H226; HOP-92; NCI-H522; CCRF-CEM; NCI-H460; UO-31; SR; DU-145; OVCAR-3; MDA-MB-435; KM12.
Assay in all cases: NCI anticancer screen, dose series, 48 h

On to `Cc1ccc2c3ccc4c(c3n(C)c2c1)C(=O)C=CC4=O`, for which the GI50 in the test on HCT-116 is 2.33 µM (inactive); in the test with SF-295 it was > 10 µM (inactive); in the test on SF-268, > 10 µM (inactive); with SK-MEL-2 it was 9.95 µM (inactive); in the test on OVCAR-8 it was 4.47 µM (inactive); in the test on OVCAR-4, > 5.12 µM (inactive). Besides, the GI50 was 3.32 µM (inactive) in the test on BT-549; > 10 µM (inactive) in the test on A549; > 10 µM (inactive) in the test with SK-OV-3; > 10 µM (inactive) in the test with NCI-H226; 3.1 µM (inactive) in the test on HOP-92; 2.95 µM (inactive) in the test on NCI-H522. The GI50 was 0.335 µM (active) in the test with CCRF-CEM; > 10 µM (inactive) in the test on NCI-H460; > 10 µM (inactive) in the test with UO-31; 1.42 µM (inactive) in the test with SR; > 10 µM (inactive) in the test on DU-145; 2.52 µM (inactive) with OVCAR-3. Moreover, the GI50 with MDA-MB-435 was 5.86 µM (inactive); with KM12 it was > 10 µM (inactive).

As for `CCOC(=O)c1nc2ccccc2nc1Oc1cc(OC)cc(OC)c1`, the GI50 in the test with HCT-116 is > 100 µM (inactive); in the test with SF-295, > 100 µM (inactive); with SF-268, 76.7 µM (inactive); with SK-MEL-2 it was > 100 µM (inactive); in the test on OVCAR-8, > 100 µM (inactive); in the test on OVCAR-4, 8.49 µM (inactive). The GI50 is > 100 µM (inactive) in the test on BT-549; > 100 µM (inactive) with A549; > 100 µM (inactive) in the test with SK-OV-3; > 100 µM (inactive) with NCI-H226; 6.81 µM (inactive) with HOP-92; 46.7 µM (inactive) in the test on NCI-H522. Also, the GI50 with CCRF-CEM was > 100 µM (inactive); in the test on NCI-H460, 39.5 µM (inactive); in the test with UO-31, > 100 µM (inactive); in the test on SR, > 100 µM (inactive); in the test with DU-145 it was > 100 µM (inactive); in the test with OVCAR-3 it was > 100 µM (inactive). In addition, the GI50 was > 100 µM (inactive) with MDA-MB-435 and 76.9 µM (inactive) in the test on KM12.

As to `C=CC1(CBr)CCC(C(C)(C)Br)O1` (stereo not given), the GI50 in the test on HCT-116 is 6.64 µM (inactive); in the test with SF-295, 12.3 µM (inactive); in the test on SF-268, 15.7 µM (inactive); in the test with SK-MEL-2 it was 12.8 µM (inactive); with OVCAR-8, 2.9 µM (inactive); in the test with OVCAR-4, 14.3 µM (inactive). Besides, the GI50 with BT-549 was 16.7 µM (inactive); in the test on A549, 17.3 µM (inactive); in the test with SK-OV-3, 14.5 µM (inactive); in the test on NCI-H226, 21 µM (inactive); in the test on HOP-92, 14.9 µM (inactive); with NCI-H522, 2.51 µM (inactive). In addition, the GI50 in the test with CCRF-CEM was 2.08 µM (inactive); in the test with NCI-H460 it was 13 µM (inactive); in the test with UO-31, 12.7 µM (inactive); in the test on SR, 2.52 µM (inactive); in the test with DU-145, 10 µM (inactive); with OVCAR-3, 9.42 µM (inactive). In addition, the GI50 is 12.6 µM (inactive) in the test on MDA-MB-435 and 12.2 µM (inactive) in the test with KM12.

For the origin of these results see ChEMBL document CHEMBL1201862, “PubChem BioAssay data set” (2004).
